Experimental data published in PMC9692753, “Pentapeptide-Zinc Chelate from Sweet Almond Expeller Amandin Hydrolysates: Structural and Physicochemical Characteristics, Stability and Zinc Transport Ability In Vitro” (Molecules, 2022).
Marks after values point to notes of the source that are not given here. Where no end group is shown, it is not given here.

What was measured:
[1] = Zinc-chelating ability assay (PAR colorimetric method); assay type: binding; conditions: sample in 0.1 mol/L HEPES-KOH buffer, DTT 8 mmol/L, ZnSO4 250 μmol/L, 37 °C 10 min, absorbance at 500 nm, n ≥ 3
Description: Zinc-chelating ability was determined using the PAR colorimetric method. […] The mixed solution was stirred (180 r/min) at 37 °C for 10 min, and then 250 μL PAR (0.2 mmol/L, pH 7.5) was added. After incubation at 37 °C for 3 min, the absorbance at 500 nm was read. […] Zinc-chelating capacity was calculated as follows:(1) Zinc chelating ability mg/g=Cc−Cs× 65.38×10^−3×V /M where, Cc (μmol/L) is the zinc concentration in the reaction solution without samples; Cs is the zinc concentration in reaction solution after the chelating reaction (μmol/L); V is the volume of the reaction solution; M is the mass of the samples (g); and 65.38 is the mol mass of zinc (g/mol).

[2] = Thermal stability of zinc solubility (boiling water); conditions: chelate 1 mg/mL in ultrapure water, zinc sulphate and zinc gluconate 100 μg/mL; boiling water 10, 20, 40, 60 min; zinc in supernatant / total zinc; PAR method; n ≥ 3; Figure 7
Description: SAEAH peptide-zinc chelate solution (1 mg/mL, dispersed in ultrapure water) was incubated in boiling water for 10, 20, 40 and 60 min [37]. After centrifugation at 6000× g for 15 min, the supernatant was collected for zinc content determination.

[3] = system: Caco-2 cells; assay: Cell viability of Caco-2 cells (MTT method); assay type: cell-based
Description: In addition, effects of ZnSO4/zinc gluconate and peptide-zinc chelate on cell viability were measured using the MTT method [38].

With “VDLVAEVPRGL [peptide identified in sweet almond expeller amandin hydrolysates]” as the compound, how does the Zinc chelating capacity [1] read?
The Zinc chelating capacity was 4.33 ± 0.33 ^e mg/g.

Which results are given for `O=C([O-])[C@H](O)[C@@H](O)[C@H](O)[C@H](O)CO.O=C([O-])[C@H](O)[C@@H](O)[C@H](O)[C@H](O)CO.[Zn+2]` [zinc gluconate]?
Zinc solubility stability against incubation at 100 °C (result in words) [2]: not reduced significantly; Cytotoxicity toward Caco-2 cells [3]: no significant (p > 0.05) cytotoxicity

For `O=C(O)CN(CCN(CC(=O)O)CC(=O)O)CC(=O)O` [EDTA], which Zinc chelating capacity [1] is on record?
The Zinc chelating capacity was 57.17 ± 2.63 ^d mg/g.
